Test results as given in patent publication US9079866B2, “Flap modulators” (JANSSEN PHARMACEUTICA NV, priority 2013, dated 2015).
Structures can show the parent of a compound that is named as a salt. Where two headings read alike, the source gives them in different places.

Experiments:
human FLAP = human FLAP (Homo sapiens (Human), UniProt P20292); experiment: FLAP binding assay (HTRF format)
Procedure, shortened: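 Samples were run in duplicate on each of two assay plates, the results were averaged, and the signal was expressed as an HTRF ratio.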

[1] = tested on: leukotriene pathway in human whole blood (LTB4 levels); experiment: Human whole blood assay (A23187-stimulated LTB4); format: cell-based; details: Homo sapiens, read-out: LTB4 IC50 1:1
Procedure, shortened: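 Heparinised human whole blood diluted 1:1 in RPMI, pre-incubated 15 min at 37° Celsius with compound, then stimulated with A23187 (7 μg/mL) for 30 min at 37° Celsius. Plasma LTB4 measured by immunoassay kit; IC50 from 4-parameter fit; single replicate per plate, at least one healthy donor.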

[2] = human FLAP wild type, HTRF format, average of two plates, duplicates
[3] = human whole blood diluted 1:1 in RPMI, A23187-stimulated LTB4
[4] = read-out: FLAP Binding wild type HTRF Ki
[5] = human whole blood diluted 1:1, A23187-stimulated

Sequence of human FLAP (P20292 whole entry): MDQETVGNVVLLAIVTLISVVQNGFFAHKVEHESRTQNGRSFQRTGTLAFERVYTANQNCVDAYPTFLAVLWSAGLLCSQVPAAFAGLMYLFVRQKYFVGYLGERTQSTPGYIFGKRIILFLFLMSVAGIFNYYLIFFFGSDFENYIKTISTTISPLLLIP

SMILES | Ki (human FLAP; [2]) [nM] | IC50 [1, 3] [nM] | Ki (human FLAP; wild type FLAP, HTRF format) [nM] | IC50 [1, 5] [nM] | also measured
Nc1cnc(-c2ccc(-c3ccccc3S(=O)(=O)C3CCS(=O)(=O)CC3)cc2F)cn1 [Example 241, 5-{2′-[(1,1-Dioxidotetrahydro-2H-thiopyran-4-yl)sulfonyl]-3-fluorobiphenyl-4-yl}pyrazin-2-amine] | 15 | 61 |  |  | 
Nc1ncc(-c2ccc(-c3ccccc3S(=O)(=O)CCCS(=O)(=O)C3CCCCC3)cc2F)cn1 [Example 319, 5-(2′-{[3-(Cyclohexylsulfonyl)propyl]sulfonyl}-3-fluorobiphenyl-4-yl)pyrimidin-2-amine] | 204 | 3260 |  |  | 
Nc1ncc(-c2ccc(-c3ccccc3S(=O)(=O)N[C@@H](c3ccccc3)C(F)(F)F)cc2F)cn1 [Example 292, 4′-(2-Aminopyrimidin-5-yl)-3′-fluoro-N-[(1S)-2,2,2-trifluoro-1-phenylethyl]biphenyl-2-sulfonamide trifluoroacetic acid salt] |  | 1030 |  |  | Ki (human FLAP; [4]): 12 nM
CCNS(=O)(=O)c1cc(C(F)(F)F)ccc1-c1ccc(-c2cnc(N)cn2)c(F)c1 [Example 211, 4′-(5-Aminopyrazin-2-yl)-N-ethyl-3′-fluoro-4-(trifluoromethyl)biphenyl-2-sulfonamide] | 1 | 6 |  |  | 
CN1CCN(S(=O)(=O)c2cc(C(F)(F)F)ccc2-c2ccc(-c3cnc(N)cn3)c(F)c2)CC1 [Example 212, 5-{3-Fluoro-2′-[(4-methylpiperazin-1-yl)sulfonyl]-4′-(trifluoromethyl)biphenyl-4-yl}pyrazin-2-amine] | 1 | 5 |  |  | 
CCNS(=O)(=O)c1ccccc1-c1ccc(-c2cnc(N)nc2)c(F)c1 [Example 295, 4′-(2-Aminopyrimidin-5-yl)-N-ethyl-3′-fluorobiphenyl-2-sulfonamide trifluoroacetic acid salt] | 25 | 110 |  |  | 
CC(C)(C)NS(=O)(=O)c1ccccc1-c1ccc(-c2ccc3nccnc3c2)c(F)c1 [Example 420, N-tert-Butyl-3′-fluoro-4′-quinoxalin-6-ylbiphenyl-2-sulfonamide] |  |  | 86 | 3280 | 
NCCNS(=O)(=O)c1ccccc1-c1ccc(-c2cnc(N)cn2)c(F)c1 [Example 152, N-(2-Aminoethyl)-4′-(5-aminopyrazin-2-yl)-3′-fluorobiphenyl-2-sulfonamide] | 81 | 537 |  |  | 
C[C@@H](CO)NS(=O)(=O)c1ccccc1-c1ccc(-c2cnc3[nH]ccc3c2)c(F)c1 [Example 362, 3′-Fluoro-N-[(1S)-2-hydroxy-1-methylethyl]-4′-(1H-pyrrolo[2,3-b]pyridin-5-yl)biphenyl-2-sulfonamide] | 1 | 47 |  |  | 
Nc1cnc(-c2ccc(-c3ccccc3S(=O)(=O)NC[C@H](O)c3ccccc3)cc2F)cn1 [Example 117, (R)-4′-(5-Aminopyrazin-2-yl)-3′-fluoro-N-(2-hydroxy-2-phenylethyl)-[1,1′-biphenyl]-2-sulfonamide] | 1 | 7 |  |  | 
CC(C)(C)OC(=O)NC1CCCN(S(=O)(=O)c2ccccc2-c2ccc(-c3cnc(N)cn3)c(F)c2)C1 (racemic) [Example 77, racemic tert-Butyl (1-{[4′-(5-aminopyrazin-2-yl)-3′-fluorobiphenyl-2-yl]sulfonyl}piperidin-3-yl)carbamate] | 3 | 342 |  |  | 
C[Si](C)(C)CCOCS(=O)(=O)c1ccccc1-c1ccc(-c2cnc(N)cn2)c(F)c1 [Example 245, 5-[3-Fluoro-2′-({[2-(trimethylsilyl)ethoxy]methyl}sulfonyl)biphenyl-4-yl]pyrazin-2-amine hydrochloride] |  |  |  |  | Ki (human FLAP; [4]): 45 nM; IC50 [1]: 233 nM
C[C@@H](O)CNS(=O)(=O)c1ccccc1-c1ccc(-c2cnc(N)cn2)c(F)c1 [Example 97, (R)-4′-(5-aminopyrazin-2-yl)-3′-fluoro-N-(2-hydroxypropyl)-[1,1′-biphenyl]-2-sulfonamide] | 8 | 42 |  |  | 
Nc1cncc(Sc2ccccc2-c2ccc(-c3cnc(N)nc3)c(F)c2)n1 [Example 336, 5-{2′-[(6-Aminopyrazin-2-yl)sulfanyl]-3-fluorobiphenyl-4-yl}pyrimidin-2-amine formate salt] | 4 | 65 |  |  | 
Nc1cnc(-c2ccc(-c3ccccc3S(=O)(=O)N3CCN(C4CC4)CC3)cc2F)cn1 [Example 60, 5-{2′-[(4-Cyclopropylpiperazin-1-yl)sulfonyl]-3-fluorobiphenyl-4-yl}pyrazin-2-amine] | 28 | 464 |  |  | 
Nc1ncc(-c2ccc(-c3ccccc3S(=O)(=O)N3CCN(CCO)CC3)cc2F)cn1 [Example 282, 2-(4-{[4′-(2-Aminopyrimidin-5-yl)-3′-fluorobiphenyl-2-yl]sulfonyl}piperazin-1-yl)ethanol trifluoroacetic acid salt] |  | 280 |  |  | Ki (human FLAP; [4]): 750 nM
Nc1cnc(-c2ccc(-c3ccc(C(F)(F)F)cc3S(N)(=O)=O)cc2F)cn1 [Example 206, 4′-(5-Aminopyrazin-2-yl)-3′-fluoro-4-(trifluoromethyl)biphenyl-2-sulfonamide] | 2 | 43 |  |  | 
Nc1cnc(-c2ccc(-c3ccccc3S(=O)(=O)N3CCC(F)(F)CC3)cc2F)cn1 [Example 49, 5-{2′-[(4,4-Difluoropiperidin-1-yl)sulfonyl]-3-fluorobiphenyl-4-yl}pyrazin-2-amine] | 2 | 21 |  |  | 
Nc1cnc(-c2ccc(-c3ccccc3S(=O)(=O)N3C[C@H](O)[C@@H](N4CCCC4)C3)cc2F)cn1 (racemic) [Example 186, Racemic-1′-{[4′-(5-Aminopyrazin-2-yl)-3′-fluorobiphenyl-2-yl]sulfonyl}-1,3′-bipyrrolidin-4′-ol] | 19 | 21 |  |  | 

Second part, led by results:

Ki (human FLAP; [2]) [nM] | IC50 [1, 3] [nM] | Ki (human FLAP; wild type FLAP, HTRF format) [nM] | IC50 [1, 5] [nM] | SMILES | also measured
 |  | 27.1 | 262 | N#Cc1nc(N)cnc1-c1ccc(-c2ccccc2Oc2ncccn2)cc1F [Example 747, 6-Amino-3-[3-fluoro-2′-(pyrimidin-2-yloxy)biphenyl-4-yl]pyrazine-2-carbonitrile] | 
 |  | 48 | 139 | O=C(c1ccccc1-c1ccc(-c2cnc3[nH]ccc3n2)c(F)c1)N1CCOCC1 [Example 500, 2-[3-Fluoro-2′-(morpholin-4-ylcarbonyl)biphenyl-4-yl]-5H-pyrrolo[2,3-b]pyrazine] | 
 |  | 7.2 | 67 | Nc1cc(Oc2ccccc2-c2ccc(-c3cnc(N)nc3)c(F)c2)ccn1 [Example 639, 5-{2′-[(2-Aminopyridin-4-yl)oxy]-3-fluorobiphenyl-4-yl}pyrimidin-2-amine] | 
 |  | 250 | 2830 | Nc1cnc(-c2ccc(-c3ccc(OC(F)(F)F)cc3F)cc2F)cn1 [Example 467, 5-[2′,3-Difluoro-4′-(trifluoromethoxy)biphenyl-4-yl]pyrazin-2-amine] | 
 |  | 10.3 | 18 | Nc1cnc(-c2ccc(-c3cccnc3S(=O)(=O)CC3CCOCC3)cc2F)cn1 [Example 824, 5-(2-Fluoro-4-(2-(((tetrahydro-2H-pyran-4-yl)methyl)sulfonyl)pyridine-3-yl)pyrazin-2-amine formic acid salt] | 
 |  | 602 | 280 | CCNS(=O)(=O)c1ccccc1-c1ccc(-c2cnc(N)nc2)nc1 [Example 683, 2-[6-(2-Aminopyrimidin-5-yl)pyridin-3-yl]-N-ethylbenzenesulfonamide trifluoroacetic acid salt] | 
 |  | 6 | 571 | Nc1cnc(-c2ccc(-c3ccccc3NS(=O)(=O)c3ccccc3)cc2F)cn1 [Example 479, N-[4′-(5-Aminopyrazin-2-yl)-3′-fluorobiphenyl-2-yl]benzenesulfonamide] | 
 |  | 15.5 | 132 | Nc1cnc(Sc2ccccc2-c2ccc(-c3cnc(N)nc3)c(F)c2)cn1 [Example 744, 5-{2′-[(5-Aminopyrazin-2-yl)sulfanyl]-3-fluorobiphenyl-4-yl}pyrimidin-2-amine] | 
 |  | 64.7 | 861 | N#Cc1nc(N)cnc1-c1ccc(-c2ccccc2S(=O)(=O)C2CC2)cc1F [Example 729, 6-Amino-3-[2′-(cyclopropylsulfonyl)-3-fluorobiphenyl-4-yl]pyrazine-2-carbonitrile] | 
 |  | 3 | 114 | Nc1cc(-c2ccc(-c3ccccc3S(=O)(=O)NC3(CO)CCCC3)cc2F)cc2cc[nH]c12 [Example 456, 4′-(7-Amino-1H-indol-5-yl)-3′-fluoro-N-[1-(hydroxymethyl)cyclopentyl]biphenyl-2-sulfonamide] | 
 |  | 2 | 38 | CC(C)(C)NS(=O)(=O)c1ccccc1-c1ccc(-c2cnc(N)c(Cl)c2)c(F)c1 [Example 451, 4′-(6-Amino-5-chloropyridin-3-yl)-N-tert-butyl-3′-fluorobiphenyl-2-sulfonamide trifluoroacetic acid salt] | 
 |  | 1.6 | 21.6 | Nc1cnc(-c2ccc(-c3ccccc3Sc3ccncn3)cc2F)cn1 [Example 743, 5-(3-Fluoro-2′-(pyrimidin-4-ylthio)-[1,1′-biphenyl]-4-yl)pyrazin-2-amine] | 
 |  | 63 | 300 | C[C@H](CO)NS(=O)(=O)c1ccccc1-c1ccc(-c2nnc(N)s2)c(F)c1 [Example 439, (R)-4′-(5-Amino-1,3,4-thiadiazol-2-yl)-3′-fluoro-N-(1-hydroxypropan-2-yl)-[1,1′-biphenyl]-2-sulfonamide] | 
 |  | 53.3 | 110 | CCNS(=O)(=O)c1cc(C(F)(F)F)ccc1-c1ccc(-c2cnc(N)nc2)nc1 [Example 692, 2-[6-(2-Aminopyrimidin-5-yl)pyridin-3-yl]-N-ethyl-5-(trifluoromethyl)benzenesulfonamide trifluoroacetic acid salt] | 
